From US10100010B1, “4-methoxy pyrrole derivatives or salts thereof and pharmaceutical composition comprising the same” (Daewoong Pharmaceutical Co., Ltd., priority 2015, dated 2018)

Key:
[1] = system: indomethacin-induced gastric damage in rats; assay: Gastric damage inhibitory activity against indomethacin-induced gastric damage in rats; assay type: in vivo, Sprague Dawley (SD) rats; settings: 2.0 mg/kg oral, 1 hour before indomethacin 80 mg/kg
Experimental: The inhibitory activity against the gastric damage of the compounds prepared in Examples 2 and 8 was measured using indomethacin model (Chiou., Et al., 2005, gastroenterology, 128, p 63-73). Male Sprague Dawley (SD) rats (body weight 180-220 g) was divided into 5 groups (n=10) and fasted for 24 hours with free access to water. Control group was orally administered with 5 mL/kg of 0.5% methyl cellulose (MC) aqueous solution, and the other groups were orally administered with test compounds suspended in 0.5% methyl cellulose (MC) aqueous solution at a dose of 2.0 mg/kg/5 ml. For comparison, the compound of Example 134 (Comparative Example 1) and the compound of Example 165 (Comparative Example 2) in International Patent Publication No. WO 2006/036024 were orally administered at a dose of 2.0 mg/kg/5 ml by suspending 0.5% methylcellulose (MC) aqueous solution, respectively. […] The incised stomach was placed on a fixture, fixed by a fixing pin while spreading out using a forcep and then the gastric damage area was measured. % Inhibitory activity of test compounds was calculated according to the following Equation 2, and the results are shown in Table 3. % Inhibitory activity of test compound=[1−(gastric damage area % of the group treated with test compounds)/(gastric damage area % of control group)]×100 [Equation 2]

H. pylori = assay: Antimicrobial activity against H. pylori, MIC by agar dilution method; assay type: cell-based; settings: Helicobacter pylori
M2 = target: T1, M2 (Homo sapiens, UniProt P08172); assay: GPCR Calcium Flux assay (FLIPR tetra, Eurofins), M2; assay type: cell-based
T1 sequence (P08172 1-466): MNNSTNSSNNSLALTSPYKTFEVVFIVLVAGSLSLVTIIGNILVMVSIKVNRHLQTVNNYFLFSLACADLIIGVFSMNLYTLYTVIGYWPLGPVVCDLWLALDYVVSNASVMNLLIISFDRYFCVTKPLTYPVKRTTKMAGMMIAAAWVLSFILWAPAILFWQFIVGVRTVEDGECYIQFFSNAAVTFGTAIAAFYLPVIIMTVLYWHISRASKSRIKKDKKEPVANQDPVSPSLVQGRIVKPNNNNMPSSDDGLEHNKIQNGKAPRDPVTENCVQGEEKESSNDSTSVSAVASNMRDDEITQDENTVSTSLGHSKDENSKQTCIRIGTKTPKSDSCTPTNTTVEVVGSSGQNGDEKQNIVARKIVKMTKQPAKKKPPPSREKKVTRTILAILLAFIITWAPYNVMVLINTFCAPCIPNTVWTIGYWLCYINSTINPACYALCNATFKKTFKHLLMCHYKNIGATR
Experimental: In order to confirm whether the compounds prepared in the above Examples act as an agonist or antagonist against GPCR Target, Calcium Flux assay was performed in an assay plate in which the compounds prepared in the Examples, vehicle controls, and reference compounds were added, using a Fluorometric imaging plate reader (FLIPR tetra) equipment.
Calcium Flux assay was evaluated by entrusting the GPCR profiler assay in Safety panel assays with Eurofins. By using the Fluo-8AM calcium dye, excitation was measured at a wavelength in the range of 470 to 495 nm and Emission was measured at a wavelength in the range of 515-575 nm. GPCR Assay Buffer for Calcium Flux assay was prepared by adding 20 mM of HEPES and 2.5 mM of Probenecid to Hanks Balanced Salt Solution (HBSS) to have pH 7.4. The Compounds of Examples for evaluation of the GPCR were diluted with DMSO at a concentration of 10 mM to make a stock and then prepared by diluting in the GPCR Assay Buffer at the concentration equivalent to three times the final concentration. First, for the evaluation of GPCRs, the inhibitory activity of the compounds of the Examples was evaluated at a single concentration of 10 uM, and then the respective selected targets were four fold-diluted from 10 uM to the low side to calculate 50% inhibitory concentration (IC50), prepared at the total 8 concentrations of 10, 2.5, 0.62, 0.15, 0.04, 0.01, 0.0024, 0.0006 uM, and Calcium Flux assay for GPCR was conducted. In order to evaluate the agonist and antagonist, % inhibition rate against GPCR activity before and after treatment of the compounds and the inhibitory activity of the compounds of the Examples were determined.
As a result, when the efficacy of […] and acetylcholine of the compounds prepared in the Examples was 100%, the inhibition rate (%) at a single concentration of 10 uM was evaluated and shown in Table 8.

CNCc1cn(S(=O)(=O)c2cccc(F)c2)c(-c2ccc(F)cc2F)c1OC.Cl [Example 8, 1-(5-(2,4-difluorophenyl)-1-((3-fluorophenyl)sulfonyl)-4-methoxy-1H-pyrrol-3-yl)-N-methylmethanamine hydrochloride]
% inhibitory activity (gastric damage area) [1]: 92.2%
MIC (H. pylori; strain 45 (HPKTCC B0004)): 75 µg/mL
MIC (H. pylori; strain 51 (HPKTCC B0006)): 75 µg/mL
MIC (H. pylori; strain 52 (HPKTCC B0007)): 75 µg/mL
MIC (H. pylori; strain 92-33-1 (HPKTCC B0182)): 75 µg/mL
MIC (H. pylori; strain 92-82-1 (HPKTCC B0233)): 75 µg/mL
MIC (H. pylori; strain 92-157 (HPKTCC B0152)): 75 µg/mL
MIC (H. pylori; strain 118 (HPKTCC B0017)): 150 µg/mL
MIC (H. pylori; strain 126 (HPKTCC B0020)): 150 µg/mL
MIC (H. pylori; strain 127 (HPKTCC B0021)): 75 µg/mL
MIC (H. pylori; strain 133 (HPKTCC B0023)): 37.5 µg/mL
MIC (H. pylori; strain 134 (HPKTCC B0024)): 75 µg/mL
MIC (H. pylori; strain 138 (HPKTCC B0026)): 75 µg/mL
MIC (H. pylori; strain 156 (HPKTCC B0035)): 150 µg/mL
MIC (H. pylori; strain 159 (HPKTCC B0037)): 150 µg/mL
MIC (H. pylori; strain 164 (HPKTCC B0040)): 75 µg/mL
MIC (H. pylori; strain 183 (HPKTCC B0047)): 150 µg/mL
MIC (H. pylori; strain 193 (HPKTCC B0051)): 75 µg/mL
MIC (H. pylori; strain 198 (HPKTCC B0055)): 75 µg/mL
MIC (H. pylori; strain 205 (HPKTCC B0058)): 75 µg/mL
MIC (H. pylori; strain 210 (HPKTCC B0061)): 75 µg/mL
MIC (H. pylori; strain 221 (HPKTCC B0068)): 75 µg/mL
MIC (H. pylori; strain 228 (HPKTCC B0071)): 75 µg/mL
MIC (H. pylori; strain 235 (HPKTCC B0074)): 75 µg/mL
MIC (H. pylori; strain 236 (HPKTCC B0075)): 75 µg/mL
MIC (H. pylori; strain 302 (HPKTCC B0088)): 75 µg/mL
MIC (H. pylori; strain 26695 (HPKTCC B0100)): 75 µg/mL
MIC (H. pylori; strain 26695 CHGKG (HPKTCC B3412)): 150 µg/mL
MIC (H. pylori; strain CH24 (HPKTCC B0508)): 75 µg/mL
MIC (H. pylori; strain CH94 (HPKTCC B0582)): 37.5 µg/mL
MIC (H. pylori; strain CH173 (HPKTCC B0494)): 75 µg/mL
MIC (H. pylori; strain CH175 (HPKTCC B0496)): 75 µg/mL
MIC (H. pylori; strain CH189 (HPKTCC B0498)): 75 µg/mL
MIC (H. pylori; strain CH192 (HPKTCC B0500)): 75 µg/mL
MIC (H. pylori; strain CH272 (HPKTCC B0516)): 75 µg/mL
MIC (H. pylori; strain CH369 (HPKTCC B0522)): 75 µg/mL
MIC (H. pylori; strain CH381 (HPKTCC B0524)): 75 µg/mL
MIC (H. pylori; strain CH498 (HPKTCC B0536)): 75 µg/mL
MIC (H. pylori; strain CH502 (HPKTCC B0537)): 75 µg/mL
MIC (H. pylori; strain CH523 (HPKTCC B0541)): 75 µg/mL
MIC (H. pylori; strain CH541 (HPKTCC B0548)): 75 µg/mL
MIC (H. pylori; strain CH588 (HPKTCC B0556)): 75 µg/mL
MIC (H. pylori; strain CH609 (HPKTCC B0558)): 75 µg/mL
MIC (H. pylori; strain CH612 (HPKTCC B0559)): 75 µg/mL
MIC (H. pylori; strain CH631 (HPKTCC B0560)): 75 µg/mL
MIC (H. pylori; strain CH635 (HPKTCC B0562)): 75 µg/mL
MIC (H. pylori; strain CH674 (HPKTCC B0564)): 75 µg/mL
MIC (H. pylori; strain CH1056 (HPKTCC B0487)): 75 µg/mL
MIC (H. pylori; strain CJH7 (HPKTCC B0606)): 75 µg/mL
MIC (H. pylori; strain CJH8 (HPKTCC B0608)): 37.5 µg/mL
MIC (H. pylori; strain CJH9 (HPKTCC B0610)): 75 µg/mL
MIC (H. pylori; strain CJH10 (HPKTCC B0587)): 75 µg/mL
MIC (H. pylori; strain CJH13 (HPKTCC B0589)): 75 µg/mL
MIC (H. pylori; strain CJH31 (HPKTCC B0594)): 75 µg/mL
MIC (H. pylori; strain CJH33 (HPKTCC B0595)): 75 µg/mL
MIC (H. pylori; strain CJH43 (HPKTCC B0596)): 75 µg/mL
MIC (H. pylori; strain CJH50 (HPKTCC B0599)): 75 µg/mL
MIC (H. pylori; strain G88001 (HPKTCC B0722)): 75 µg/mL
MIC (H. pylori; strain G88007 (HPKTCC B0725)): 75 µg/mL
MIC (H. pylori; strain J99 (HPKTCC B0748)): 75 µg/mL
MIC (H. pylori; strain SS1-P-4′ (HPKTCC B3392)): 37.5 µg/mL
IC50 (M2; 8 concentrations 10 to 0.0006 uM, read-out: 50% inhibitory concentration (IC50) M2): 650 nM
inhibition at 10 µM (M2; single concentration of 10 uM, read-out: inhibition rate (%) M2): 101%
